The record followed here is ChEMBL document CHEMBL1141648, “Aurora kinase A inhibitors: identification, SAR exploration and molecular modeling of 6,7-dihydro-4H-pyrazolo-[1,5-a]pyrrolo[3,4-d]pyrimidine-5,8-dione scaffold” (Bioorg Med Chem Lett, 2008).

A word on the inhibition: it is the drop in the measured response relative to a control, in per cent. Broadly, the pIC50 is −log10 of the IC50, conventionally taken in molar units. Low readings indicate a large IC50, high ones a small IC50. The pKi is the Ki on a negative log10 scale, so that one unit is a factor of ten. Read a low pKi as a high Ki.

SMILES strings stand for the structures. pIC50, pKi: −log10 of the molar value.

The target of experiment [1] is T1, Aurora kinase A (Homo sapiens) (UniProt O14965).
T1 sequence (whole entry): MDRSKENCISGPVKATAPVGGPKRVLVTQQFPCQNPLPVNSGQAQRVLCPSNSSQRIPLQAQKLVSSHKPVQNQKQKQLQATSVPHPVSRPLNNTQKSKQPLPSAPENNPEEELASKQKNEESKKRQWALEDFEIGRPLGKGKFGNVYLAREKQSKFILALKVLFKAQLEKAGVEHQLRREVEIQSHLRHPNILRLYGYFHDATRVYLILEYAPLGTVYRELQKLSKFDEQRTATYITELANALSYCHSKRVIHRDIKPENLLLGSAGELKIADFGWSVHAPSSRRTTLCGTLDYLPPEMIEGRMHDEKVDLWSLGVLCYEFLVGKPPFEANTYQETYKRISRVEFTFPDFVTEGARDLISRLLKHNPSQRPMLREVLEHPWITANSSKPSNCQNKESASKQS
Nature of the experiment: Inhibition of Aurora A kinase at 50 uM.

The target in experiment [2] is T1, Aurora kinase A (Homo sapiens). Nature of the experiment: Inhibition of Aurora A kinase at 10 uM.
The target of a further experiment is T2, Aurora kinase A (Homo sapiens, UniProt O14965).
T2 sequence (O14965 whole entry): T1 sequence (whole entry)
Nature of the experiment: Inhibition of Aurora A kinase.

The target of another experiment is T3, Aurora kinase C (Homo sapiens, UniProt Q9UQB9).
T3 sequence (Q9UQB9 whole entry): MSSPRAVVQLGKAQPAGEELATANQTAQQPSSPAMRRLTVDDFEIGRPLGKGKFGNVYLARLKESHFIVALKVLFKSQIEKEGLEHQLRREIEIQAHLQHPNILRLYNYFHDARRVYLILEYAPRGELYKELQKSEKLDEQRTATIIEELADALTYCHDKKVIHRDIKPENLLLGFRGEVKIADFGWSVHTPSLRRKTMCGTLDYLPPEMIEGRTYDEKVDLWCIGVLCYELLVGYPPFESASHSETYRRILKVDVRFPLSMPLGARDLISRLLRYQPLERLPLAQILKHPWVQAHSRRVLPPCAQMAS
Nature of the experiment: Inhibition of Aurora C kinase.

With `COc1ccc(CN2Cc3c([nH]c4cc(-c5ccco5)nn4c3=O)C2=O)cc1OC`, the inhibition was determined as 70.8% in experiment [1] and 7.8% in experiment [2].

`O=C1c2c(c(=O)n3nc(-c4ccco4)cc3n2CCN2CCOCC2)CN1Cc1ccccc1`: the inhibition in experiment [1] came to 1.1%; in experiment [2], 0%.

`Cn1c2c(c(=O)n3nc(-c4ccco4)cc13)CN(Cc1ccccc1)C2=O`: the values for the inhibition in experiment [1] and in experiment [2] were 3.4% and 2.3%, respectively.

For `COc1cccc(CN2Cc3c([nH]c4cc(-c5ccco5)nn4c3=O)C2=O)c1`, the pIC50 on Aurora kinase A is 4.82. For the same compound, the values for the inhibition in experiment [1] and in experiment [2] were 90% and 29.3%, respectively.

On to `O=C1c2[nH]c3cc(-c4ccco4)nn3c(=O)c2CN1CCCc1ccccc1`, for which the inhibition in experiment [1] came to 84.4%; in experiment [2], 16.4%.

`O=C1c2[nH]c3cc(-c4ccco4)nn3c(=O)c2CN1Cc1ccc(F)cc1`: the inhibition in experiment [1] was determined as 89.8%; in experiment [2], 24%.

Regarding `O=C1c2[nH]c3ccnn3c(=O)c2CN1Cc1ccccc1`, the inhibition in experiment [1] came out at 14.5%; in experiment [2], 1.6%.

As for `COc1cc(CN2Cc3c([nH]c4cc(-c5ccco5)nn4c3=O)C2=O)cc(OC)c1`, the values for the inhibition in experiment [1] and in experiment [2] were 75.3% and 10.1%, respectively.

As for `COc1ccc(CN2Cc3c([nH]c4cc(-c5ccco5)nn4c3=O)C2=O)cc1`, the pIC50 against Aurora kinase A is 5.10. In addition, the results for the inhibition in experiment [1] and in experiment [2] were 88.2% and 42.4%, respectively.

As to `O=C1c2[nH]c3cc(-c4ccco4)nn3c(=O)c2CN1CCN1CCOCC1`, the inhibition in experiment [1] worked out at 10.7%; in experiment [2] it was 0.9%.

Turning to `O=C1c2[nH]c3cc(-c4ccco4)nn3c(=O)c2CN1Cc1cccc2ccccc12`, the inhibition in experiment [1] was 79.9%; in experiment [2], 30.4%.

As to `O=C1c2[nH]c3cc(-c4ccco4)nn3c(=O)c2CN1c1ccccc1`, the inhibition in experiment [1] was 73.7%; in experiment [2], 7.6%.

For the compound `O=C1c2[nH]c3cc(-c4ccco4)nn3c(=O)c2CN1CCc1ccccc1`, the inhibition in experiment [1] was found to be 83.9%; in experiment [2], 19.6%.

As for `O=C1c2[nH]c3cc(-c4cccs4)nn3c(=O)c2CN1Cc1ccccc1`, the inhibition in experiment [1] is 72.3%; in experiment [2], 29.4%.

The compound `CO[C@@H](C(=O)N1Cc2n[nH]c(NC(=O)c3ccc(N4CCN(C)CC4)cc3)c2C1)c1ccccc1` [DANUSERTIB] gave a pKi on Aurora kinase C of 7.21.

Consider `Cc1cc2[nH]c3c(c(=O)n2n1)CN(Cc1ccccc1)C3=O`, for which the inhibition is 20.8% in experiment [1] and 1.8% in experiment [2].

On Aurora kinase A, `CC(=O)Nc1cccc(CN2Cc3c([nH]c4cc(-c5ccco5)nn4c3=O)C2=O)c1` had a pIC50 of 4.74. Further, the values for the inhibition in experiment [1] and in experiment [2] were 87.8% and 35.8%, respectively.

As for `O=C1c2[nH]c3cc(-c4ccco4)nn3c(=O)c2CN1Cc1ccccn1`, the results for the inhibition in experiment [1] and in experiment [2] were 79.2% and 21.6%, respectively.

In the case of `O=C1c2[nH]c3cc(-c4ccco4)nn3c(=O)c2CN1Cc1ccc2c(c1)OCO2`, the inhibition in experiment [1] was determined as 75.2%; in experiment [2], 12.3%.

On to `O=C1c2nc3cc(-c4ccccc4)nn3c(O)c2CN1Cc1ccccc1`, for which the inhibition in experiment [1] stood at 47.2%; in experiment [2], 25.9%.

On Aurora kinase A, `O=C1c2nc3cc(-c4ccco4)nn3c(O)c2CN1Cc1ccccc1` gave a pIC50 of 4.82. The results for the inhibition in experiment [1] and in experiment [2] were 90.2% and 35.6%, respectively.

`COc1ccccc1CN1Cc2c([nH]c3cc(-c4ccco4)nn3c2=O)C1=O` showed a pIC50 at Aurora kinase A of 5.25. In addition, the inhibition was found to be 95.1% in experiment [1] and 51.6% in experiment [2].
